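Exposure lasted 48 hours, with cells grown in 96-well plates and compounds tested at five concentrations. TGI marks complete inhibition of growth.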
Key:
Experiment in all cases: NCI anticancer screen, dose series, 48 h
OVCAR-8 ovarian = test system: OVCAR-8 ovarian
HOP-62 NSCLC = test system: HOP-62 NSCLC
SK-MEL-5 melanoma = test system: SK-MEL-5 melanoma
M14 melanoma = test system: M14 melanoma
HOP-92 NSCLC = test system: HOP-92 NSCLC
HCT-116 colon = test system: HCT-116 colon
SF-268 CNS = test system: SF-268 CNS
SNB-78 CNS = test system: SNB-78 CNS
NCI-H23 lung = test system: NCI-H23 lung
A498 renal = test system: A498 renal
U251 CNS = test system: U251 CNS
M19-MEL melanoma = test system: M19-MEL melanoma
HOP-18 NSCLC = test system: HOP-18 NSCLC
NCI-H522 lung = test system: NCI-H522 lung
MOLT-4 leukemia = test system: MOLT-4 leukemia
LOX IMVI melanoma = test system: LOX IMVI melanoma
HCC-2998 colon = test system: HCC-2998 colon
SK-MEL-2 melanoma = test system: SK-MEL-2 melanoma
SF-295 CNS = test system: SF-295 CNS
NCI-H226 lung = test system: NCI-H226 lung
SR leukemia = test system: SR leukemia
DLD-1 colon = test system: DLD-1 colon
OVCAR-5 ovarian = test system: OVCAR-5 ovarian
SK-OV-3 ovarian = test system: SK-OV-3 ovarian
OVCAR-4 ovarian = test system: OVCAR-4 ovarian
MALME-3M melanoma = test system: MALME-3M melanoma
EKVX NSCLC = test system: EKVX NSCLC
LXFL 529 NSCLC = test system: LXFL 529 NSCLC
TK-10 renal = test system: TK-10 renal
KM12 colon = test system: KM12 colon
RPMI-8226 leukemia = test system: RPMI-8226 leukemia
SW-620 colon = test system: SW-620 colon
HL-60(TB) leukemia = test system: HL-60(TB) leukemia
RXF 393 renal = test system: RXF 393 renal
KM20L2 colon = test system: KM20L2 colon
HCT-15 colon = test system: HCT-15 colon
NCI-H460 lung = test system: NCI-H460 lung
A549 NSCLC = test system: A549 NSCLC
COLO 205 colon = test system: COLO 205 colon
UACC-257 melanoma = test system: UACC-257 melanoma
HT29 colon = test system: HT29 colon
SK-MEL-28 melanoma = test system: SK-MEL-28 melanoma
CCRF-CEM leukemia = test system: CCRF-CEM leukemia
ACHN renal = test system: ACHN renal
786-0 renal = test system: 786-0 renal
CAKI-1 renal = test system: CAKI-1 renal
IGROV1 ovarian = test system: IGROV1 ovarian
SN12C renal = test system: SN12C renal
SNB-75 CNS = test system: SNB-75 CNS
DMS 273 small cell lung = test system: DMS 273 small cell lung
SNB-19 CNS = test system: SNB-19 CNS
DMS 114 small cell lung = test system: DMS 114 small cell lung
K-562 leukemia = test system: K-562 leukemia
SF-539 CNS = test system: SF-539 CNS
OVCAR-3 ovarian = test system: OVCAR-3 ovarian
UO-31 renal = test system: UO-31 renal
UACC-62 melanoma = test system: UACC-62 melanoma

N#CC1(C#N)C(C#N)(C#N)C12CCCCCC2
TGI (OVCAR-8 ovarian): 26.7 µM
TGI (HOP-62 NSCLC): > 89.4 µM
TGI (SK-MEL-5 melanoma): 36.7 µM
TGI (M14 melanoma): 8.67 µM
TGI (HOP-92 NSCLC): 29.4 µM
TGI (HCT-116 colon): 17.5 µM
TGI (SF-268 CNS): 48.9 µM
TGI (SNB-78 CNS): 38.5 µM
TGI (NCI-H23 lung): 31.3 µM
TGI (A498 renal): 34.1 µM
TGI (U251 CNS): 20.5 µM
TGI (M19-MEL melanoma): 47.9 µM
TGI (HOP-18 NSCLC): 30.3 µM
TGI (NCI-H522 lung): 7.88 µM
TGI (MOLT-4 leukemia): 19.5 µM
TGI (LOX IMVI melanoma): 32.3 µM
TGI (HCC-2998 colon): 35.3 µM
TGI (SK-MEL-2 melanoma): 18.4 µM
TGI (SF-295 CNS): > 57.2 µM
TGI (NCI-H226 lung): 47.5 µM
TGI (SR leukemia): 75.2 µM
TGI (DLD-1 colon): 10.3 µM
TGI (OVCAR-5 ovarian): 30 µM
TGI (SK-OV-3 ovarian): > 100 µM
TGI (OVCAR-4 ovarian): 30 µM
TGI (MALME-3M melanoma): 31 µM
TGI (EKVX NSCLC): 31.9 µM
TGI (LXFL 529 NSCLC): 29.8 µM
TGI (TK-10 renal): 30.5 µM
TGI (KM12 colon): 19.3 µM
TGI (RPMI-8226 leukemia): > 35.1 µM
TGI (SW-620 colon): 5.29 µM
TGI (HL-60(TB) leukemia): 20.6 µM
TGI (RXF 393 renal): 22.9 µM
TGI (KM20L2 colon): 32 µM
TGI (HCT-15 colon): 24.2 µM
TGI (NCI-H460 lung): > 66.5 µM
TGI (A549 NSCLC): 21.4 µM
TGI (COLO 205 colon): 33.7 µM
TGI (UACC-257 melanoma): 27.4 µM
TGI (HT29 colon): 34.6 µM
TGI (SK-MEL-28 melanoma): 21.4 µM
TGI (CCRF-CEM leukemia): 6.89 µM
TGI (ACHN renal): 23.2 µM
TGI (786-0 renal): 14.3 µM
TGI (CAKI-1 renal): 24.6 µM
TGI (IGROV1 ovarian): > 68.8 µM
TGI (SN12C renal): 33.7 µM
TGI (SNB-75 CNS): > 55.3 µM
TGI (DMS 273 small cell lung): 52.4 µM
TGI (SNB-19 CNS): > 87.8 µM
TGI (DMS 114 small cell lung): 43.2 µM
TGI (K-562 leukemia): > 30.3 µM
TGI (SF-539 CNS): 18 µM
TGI (OVCAR-3 ovarian): 29.7 µM
TGI (UO-31 renal): 32.8 µM
TGI (UACC-62 melanoma): 18.4 µM

Reference: PubChem BioAssay (NCI)
